Where “and” joins values, the source holds several entries; their conditions need not be identical. Equal entries are not always repeated. Toxic doses and inconclusive results are not listed. The calls were made as follows: active = survival T/C of 150% or more; inactive = T/C below 125% in these data. Square brackets hold non-standard residues; d marks the D form. Peptide text beside a SMILES is read from it. * marks the point of attachment. ξ: configuration not given here. Cbz = O=C(OCc1ccccc1)*; ξL = CC(C)CC(N)C(=O)O; OBn = c1ccc(CO*)cc1
Tested on: P388 leukemia ip, CD2F1 mice, survival T/C
Assay: NCI In Vivo Anticancer Drug Screen. Data for tumor model P388 Leukemia (intraperitoneal) in CD2F1 (CDF1) mice
Settings: endpoint: median survival time, higher = longer survival
Outline: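 Mice carrying the transplanted tumor received test compound or vehicle. Survival was recorded in each group, and the value is the treated-group measurement divided by that of the vehicle-treated control group.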

[1] = dose: 25.0 mg/kg/injection, schedule: Q01DX009 (ip), vehicle: saline with Tween-80
[2] = dose: 50.0 mg/kg/injection, schedule: Q01DX009 (ip), vehicle: saline with Tween-80
[3] = dose: 100.0 mg/kg/injection, schedule: Q01DX009 (ip), vehicle: saline with Tween-80
[4] = dose: 50.0 mg/kg/injection, schedule: Q01DX005 (ip), vehicle: saline with Tween-80
[5] = dose: 100.0 mg/kg/injection, schedule: Q01DX005 (ip), vehicle: saline with Tween-80
[6] = dose: 200.0 mg/kg/injection, schedule: Q01DX005 (ip), vehicle: saline with Tween-80
[7] = dose: 60.0 mg/kg/injection, schedule: Q01DX005 (ip), vehicle: saline with Tween-80
[8] = dose: 120.0 mg/kg/injection, schedule: Q01DX005 (ip), vehicle: saline with Tween-80
[9] = dose: 50.0 mg/kg/injection, schedule: Q01DX005 (ip), vehicle: saline
[10] = dose: 200.0 mg/kg/injection, schedule: Q01DX005 (ip), vehicle: saline
[11] = dose: 25.0 mg/kg/injection, schedule: Q01DX009 (ip), vehicle: saline
[12] = dose: 50.0 mg/kg/injection, schedule: Q01DX009 (ip), vehicle: saline
[13] = dose: 100.0 mg/kg/injection, schedule: Q01DX009 (ip), vehicle: saline
[14] = dose: 100.0 mg/kg/injection, schedule: Q04DX003 (ip), vehicle: saline
[15] = dose: 200.0 mg/kg/injection, schedule: Q01DX009 (ip), vehicle: saline
[16] = dose: 240.0 mg/kg/injection, schedule: Q01DX005 (ip), vehicle: saline with Tween-80
[17] = dose: 200.0 mg/kg/injection, schedule: Q01DX009 (ip), vehicle: saline with Tween-80
[18] = dose: 60.0 mg/kg/injection, schedule: Q01DX005 (ip), vehicle: Klucel (hydroxypropylcellulose) (HPC)
[19] = dose: 50.0 mg/kg/injection, schedule: Q01DX005 (ip), vehicle: Klucel (hydroxypropylcellulose) (HPC)
[20] = dose: 100.0 mg/kg/injection, schedule: Q01DX005 (ip), vehicle: Klucel (hydroxypropylcellulose) (HPC)
[21] = dose: 200.0 mg/kg/injection, schedule: Q01DX005 (ip), vehicle: Klucel (hydroxypropylcellulose) (HPC)

Measured: T/C

O=[N+]([O-])c1ccc(Sc2ccncn2)c([N+](=O)[O-])c1
inactive: dose: 12.5 mg/kg/injection, schedule: Q01DX009 (ip), vehicle: saline with Tween-80 91 % of control | [1] 116 % of control | [2] 123 % of control | [3] 116 % of control

Cc1c(COC(=O)NC(C)C)c(COC(=O)NC(C)C)c2n1CCS2(=O)=O
inactive: dose: 25.0 mg/kg/injection, schedule: Q01DX005 (ip), vehicle: saline with Tween-80 92 % of control | [4] 100 % of control | [5] 92 % of control | [6] 86 % of control and 91 % of control | dose: 400.0 mg/kg/injection, schedule: Q01DX005 (ip), vehicle: saline with Tween-80 91 % of control

O=C(Nc1ccccc1-c1ccccc1)C(=O)Nc1ccccc1-c1ccccc1
inactive: [4] 90 % of control | [5] 89 % of control

C=C(c1ccc(OC)cc1)C(CC)c1ccc(OC)cc1 (centres undefined)
inactive: [7] 101 % of control | [8] 100 % of control

CC(O)C1CCCCN1 (centres undefined)
inactive: [9] 101 % of control | dose: 100.0 mg/kg/injection, schedule: Q01DX005 (ip), vehicle: saline 101 % of control | [10] 108 % of control

CN(C)CCCn1c2ccccc2c2cnccc21
inactive: [11] 100 % of control | dose: 25.0 mg/kg/injection, schedule: Q04DX003 (ip), vehicle: saline 100 % of control | [12] 100 % of control | dose: 50.0 mg/kg/injection, schedule: Q04DX003 (ip), vehicle: saline 95 % of control | [13] 109 % of control | [14] 95 % of control

CCOC(=O)CS(=O)(=O)CCCCCCCCCCS(=O)(=O)CC(=O)OCC
inactive: [12] 102 % of control | [13] 99 % of control | [15] 89 % of control

O=C1N[C@@H]2C(=C[C@H](O)[C@@H](O)[C@H]2O)c2cc3c(c(O)c21)OCO3
inactive: dose: 0.62 mg/kg/injection, schedule: Q01DX009 (ip), vehicle: saline with Tween-80 110 % of control | dose: 5.0 mg/kg/injection, schedule: Q01DX009 (ip), vehicle: saline with Tween-80 100 % of control | dose: 10.0 mg/kg/injection, schedule: Q01DX009 (ip), vehicle: saline with Tween-80 87 % of control

COc1ccc(/C=N/NC(=O)c2ccncc2)cc1F
inactive: dose: 15.0 mg/kg/injection, schedule: Q01DX005 (ip), vehicle: saline with Tween-80 100 % of control | dose: 30.0 mg/kg/injection, schedule: Q01DX005 (ip), vehicle: saline with Tween-80 99 % of control | [7] 101 % of control and 88 % of control | [8] 88 % of control | [16] 95 % of control

Oc1ccccc1O
inactive: dose: 3.12 mg/kg/injection, schedule: Q01DX009 (ip), vehicle: saline 112 % of control | dose: 6.25 mg/kg/injection, schedule: Q01DX009 (ip), vehicle: saline 104 % of control | dose: 12.5 mg/kg/injection, schedule: Q01DX009 (ip), vehicle: saline 105 % of control | [11] 105 % of control | [12] 105 % of control and 106 % of control and 107 % of control

Cc1ccc2c3c(c(O)c(C(C)(C)O)cc13)OC2=O
inactive: dose: 15.63 mg/kg/injection, schedule: Q01DX005 (ip), vehicle: Klucel (hydroxypropylcellulose) (HPC) 91 % of control | dose: 31.25 mg/kg/injection, schedule: Q01DX005 (ip), vehicle: Klucel (hydroxypropylcellulose) (HPC) 90 % of control | dose: 62.5 mg/kg/injection, schedule: Q01DX005 (ip), vehicle: Klucel (hydroxypropylcellulose) (HPC) 93 % of control | dose: 125.0 mg/kg/injection, schedule: Q01DX005 (ip), vehicle: Klucel (hydroxypropylcellulose) (HPC) 93 % of control | dose: 250.0 mg/kg/injection, schedule: Q01DX005 (ip), vehicle: Klucel (hydroxypropylcellulose) (HPC) 93 % of control

CC(C)CC(NC(=O)OCc1ccccc1)C(=O)NCC(=O)NCC(=O)OCc1ccccc1 (stereo not drawn) (Cbz-[ξL]-Gly-Gly-OBn)
inactive: [4] 105 % of control | [5] 105 % of control | [6] 102 % of control

CCC1CCC2COCN2C1 (centres undefined)
inactive: dose: 25.0 mg/kg/injection, schedule: Q01DX005 (ip), vehicle: saline 104 % of control | [9] 120 % of control | [10] 117 % of control and 118 % of control

CCOC(=C[P+](c1ccccc1)(c1ccccc1)c1ccccc1)OCC
inactive: dose: 0.39 mg/kg/injection, schedule: Q01DX005 (ip), vehicle: water 98 % of control and 103 % of control | dose: 0.78 mg/kg/injection, schedule: Q01DX005 (ip), vehicle: water 107 % of control and 96 % of control | dose: 1.56 mg/kg/injection, schedule: Q01DX005 (ip), vehicle: water 102 % of control and 110 % of control and 121 % of control | dose: 3.12 mg/kg/injection, schedule: Q01DX005 (ip), vehicle: water 113 % of control and 118 % of control and 124 % of control | dose: 6.25 mg/kg/injection, schedule: Q01DX005 (ip), vehicle: water 109 % of control

O=C(c1ccccc1)N1CCCCC1
inactive: [12] 95 % of control | [13] 100 % of control | [14] 110 % of control | [15] 100 % of control | dose: 200.0 mg/kg/injection, schedule: Q04DX003 (ip), vehicle: saline 110 % of control

CCN(C)c1cc(=O)c2c(ccc3ccccc32)o1
inactive: [2] 94 % of control | [3] 101 % of control | [17] 95 % of control

O=C(N/N=C/c1ccccc1O)C(=O)NC1CC1
inactive: [2] 92 % of control | [3] 91 % of control | [17] 91 % of control

O=C(O)c1cnc2cc3c(cc2c1Nc1cccc(Cl)c1)OCO3
inactive: [18] 93 % of control | dose: 120.0 mg/kg/injection, schedule: Q01DX005 (ip), vehicle: Klucel (hydroxypropylcellulose) (HPC) 105 % of control | dose: 240.0 mg/kg/injection, schedule: Q01DX005 (ip), vehicle: Klucel (hydroxypropylcellulose) (HPC) 106 % of control

CC(C)OC1CC(C)(O)Cc2cc3c(c(O)c21)C(=O)c1c(O)cc2c(c1C3=O)OC1OC2(C)C(O)C(N(C)C)C1O (centres undefined)
inactive: dose: 2.0 mg/kg/injection, schedule: Q01DX009 (ip), vehicle: other 101 % of control | dose: 4.0 mg/kg/injection, schedule: Q01DX009 (ip), vehicle: other 120 % of control | dose: 8.0 mg/kg/injection, schedule: Q01DX009 (ip), vehicle: other 106 % of control | dose: 16.0 mg/kg/injection, schedule: Q01DX009 (ip), vehicle: other 87 % of control

S=C(NNC(=S)Nc1ccccc1)Nc1ccccc1
inactive: [11] 102 % of control | dose: 50.0 mg/kg/injection, schedule: Q01DX009 (ip), vehicle: Klucel (hydroxypropylcellulose) (HPC) 97 % of control | [12] 109 % of control | dose: 100.0 mg/kg/injection, schedule: Q01DX009 (ip), vehicle: Klucel (hydroxypropylcellulose) (HPC) 93 % of control | [13] 100 % of control | dose: 200.0 mg/kg/injection, schedule: Q01DX009 (ip), vehicle: Klucel (hydroxypropylcellulose) (HPC) 101 % of control | dose: 400.0 mg/kg/injection, schedule: Q01DX009 (ip), vehicle: Klucel (hydroxypropylcellulose) (HPC) 104 % of control

O=S(=O)(Nc1ccnn1-c1ccccc1)c1ccc(N=Cc2c3ccccc3nc3cc(Cl)ccc23)cc1
inactive: [7] 94 % of control | [8] 91 % of control | [16] 102 % of control

O=C(c1ccccc1)C1CCCN(CCc2ccccc2)C1 (centres undefined)
inactive: [4] 108 % of control | [5] 109 % of control

C=CCOP1(c2ccccc2)(c2ccccc2)NC(c2ccccc2)(c2ccccc2)C(C(=O)OC)=C1C(=O)OC
inactive: [19] 90 % of control | [20] 91 % of control | [21] 92 % of control

Fc1ccccc1N=Cc1ccc(C=Nc2ccccc2F)cc1
inactive: dose: 15.0 mg/kg/injection, schedule: Q01DX005 (ip), vehicle: Klucel (hydroxypropylcellulose) (HPC) 100 % of control | dose: 30.0 mg/kg/injection, schedule: Q01DX005 (ip), vehicle: Klucel (hydroxypropylcellulose) (HPC) 92 % of control | [18] 95 % of control

Cc1c(C)c(C)c2c(c1C)C(=O)c1c3c(c4c(c1C2=O)CCCC4)CCCC3
inactive: [1] 108 % of control | [2] 103 % of control | [3] 99 % of control

Cc1ccc(NC(=O)c2ccc([N+](=O)[O-])cc2)c(C)c1
inactive: [3] 100 % of control | [17] 100 % of control | dose: 400.0 mg/kg/injection, schedule: Q01DX009 (ip), vehicle: saline with Tween-80 110 % of control

CCOCCOC(=O)c1nn(-c2ccc(Cl)cc2)c2c1C(=O)c1ccccc1C2=O
inactive: [19] 94 % of control | [20] 100 % of control | [21] 101 % of control
